Entries after “also recorded” stand apart in the source; their conditions may differ.
Test system: NPC patient-derived skin fibroblasts
Assay: Amplex red cholesterol assay (free cholesterol)
Assay type: cell-based, human
From the text: Free cholesterol accumulation in cells is a hallmark of NPC disease. The Amplex red cholesterol assay was used to screen an approved drug library in the NPC patient-derived skin fibroblasts that have free cholesterol accumulation in late endosome and lysosome. […] We then show δ-tocopherol in the filipin cholesterol staining assay, a method used clinically for NPCD diagnosis. […] Lysosome size is usually enlarged in the NPCD cells using a lysotracker staining assay.
The free cholesterol level in these cells was then measured by a cholesterol oxidase coupled HRP/amplex red detection method with a commercial available kit (Invitrogen). The cells were seeded to black, tissue culture-treated 1536-well plates (Greiner Bio-One, Monroe, N.C.) at 800 cells/well in 5 μl medium by a Multidrop Combi dispenser (Thermo Scientific, Waltham, Mass.) and cultured for 24 hours. The assay plates were added with 23 nl/well of compound DMSO solution using a pintool station (Kalypsys, San Diego, Calif.) and cultured for 3 days. The 1536-well assay plate was washed by a plate-inverted centrifugation method that removing medium by centrifuging plates upside down against a stack of paper towel at 1000 rpm for 1 min followed by addition of 7 μl/well PBS buffer, repeating for two times. The PBS buffer was added with a 45 degree angled dispenser (Kalypsys) or a Multi-Drop Combi dispenser set at medium speed to reduce disturbance to the cells. After the cell wash, 2.5 μl/well of detection mixture from the kit was added followed by 1 hour incubation at 37° C. With the addition of the detection mixture, the cells were lysed by the detergent containing buffer and free cholesterols in cell lysate were oxidized by cholesterol oxidase to produce H2O2 which reacting with amplex red dye in the presence of horseradish peroxidase to yield red fluorescence signal. A ViewLux plate reader (PerkinElmer, Boston, Mass.) was used to measure the fluorescent signal in assay plates with the excitation of 573 nm and emissions of 610 nm.

[1] = 9 additional fibroblast primary cells from different NPCD patients

**Q.** How did the “effect compared with α-tocopherol” value [1] turn out when `Cc1cc(O)cc2c1O[C@](C)(CCC[C@H](C)CCC[C@H](C)CCCC(C)C)CC2` [δ-tocopherol] was run?
**A.** more potent than that of α-tocopherol

**Q.** What about the “effect on cholesterol reduction” value [1] of the same molecule?
**A.** confirmed

**Q.** What about the “cholesterol amount (cholesterol reduction)” value (NPCD fibroblasts) of the same molecule?
**A.** significantly reduced

**Q.** And the “potency compared with the other vitamin E isoforms” value (free cholesterol amount, filipin staining, lysotracker staining, NPCD fibroblasts)?
**A.** most potent of the eight isoforms of vitamin E; also recorded: more significant and potent than any of the other vitamin E isoforms

**Q.** And the “effect compared with α-tocopherol” value (δ-tocopherol at 40 μM, NPC fibroblasts)?
**A.** more potent than α-tocopherol at 80 μM

From patent US10039741B2, “Use of delta tocopherol for the treatment of lysosomal storage disorders” (The United States of America, as represented by the …, priority 2010, dated 2018)
